Row | SMILES | melting point
1 | CC(C)=CC1C[C@@](C)(O[C@@H]2OC[C@H](O)C(O)C2O)C2C3CCC4[C@@]5(C)CC[C@H](O[C@@H]6OC[C@H](O)C(O[C@@H]7OC(CO)[C@@H](O)C(O)C7O)C6O[C@@H]6O[C@@H](CO)C(O)C6O)C(C)(C)C5CC[C@@]4(C)[C@@]34CO[C@@]2(C4)O1 (stereo partly drawn) | 248 to 256 °C
2 | CC(C)=CC1C[C@@](C)(O[C@@H]2OC[C@H](O)C(O)C2O)C2C3CCC4[C@@]5(C)CC[C@H](O[C@@H]6OC(CO)[C@@H](O)C(O[C@@H]7OC(CO)[C@@H](O)C(O)C7O)C6O[C@@H]6O[C@@H](CO)C(O)C6O)C(C)(C)C5CC[C@@]4(C)[C@@]34CO[C@@]2(C4)O1 (stereo partly drawn) | 246 to 258 °C
3 | CC(C)=C[C@H]1CO[C@]23C[C@]4(CO2)C(CCC2[C@@]5(C)CC[C@H](O[C@@H]6OC(CO)[C@@H](O)C(O[C@@H]7OC(CO)[C@@H](O)C(O)C7O)C6O)C(C)(C)C5CC[C@]24C)C3[C@]1(C)O (stereo partly drawn) | 278 to 282 °C
